Results reported in the supplement of paper PMC10307832.

Legend:
Experiment in all cases: relative viability (nuclei count vs DMSO), 5 days (fraction); higher = more cells survive
17-AAG + Palbociclib = compound: C=CCNC1=C2C[C@@H](C)C[C@H](OC)[C@H](O)[C@@H](C)/C=C(\C)[C@H](OC(N)=O)[C@@H](OC)/C=C\C=C(/C)C(=O)NC(=CC1=O)C2=O [17-AAG] + CC(=O)c1c(C)c2cnc(Nc3ccc(N4CCNCC4)cn3)nc2n(C2CCCC2)c1=O [Palbociclib] (partner 0.5 µM)
Outline: (§1)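 Lung cancer cell lines were seeded in 1536-well plates and dosed by pin tool the next day, with either a single drug or a fixed anchor-drug dose combined with five library-drug doses (not always all listed) spaced in √10 steps. Five days later, one step fixed the cells and stained their nuclei (final 0.05% Triton X-100, 1% formaldehyde, 1 ug/ml Hoechst), and nuclei were counted on 4× images. Relative viability is the nuclei count in treated wells divided by the count in vehicle wells, and each value is the median of duplicate plates.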

17-AAG + Bortezomib = compound: C=CCNC1=C2C[C@@H](C)C[C@H](OC)[C@H](O)[C@@H](C)/C=C(\C)[C@H](OC(N)=O)[C@@H](OC)/C=C\C=C(/C)C(=O)NC(=CC1=O)C2=O [17-AAG] + CC(C)C[C@H](NC(=O)[C@H](Cc1ccccc1)NC(=O)c1cnccn1)B(O)O [Bortezomib] (partner 0.002 µM)
Outline: as §1

17-AAG + Dasatinib = compound: C=CCNC1=C2C[C@@H](C)C[C@H](OC)[C@H](O)[C@@H](C)/C=C(\C)[C@H](OC(N)=O)[C@@H](OC)/C=C\C=C(/C)C(=O)NC(=CC1=O)C2=O [17-AAG] + Cc1nc(Nc2ncc(C(=O)Nc3c(C)cccc3Cl)s2)cc(N2CCN(CCO)CC2)n1 [Dasatinib] (partner 0.075 µM)
Outline: as §1

17-AAG + Alpelisib = compound: C=CCNC1=C2C[C@@H](C)C[C@H](OC)[C@H](O)[C@@H](C)/C=C(\C)[C@H](OC(N)=O)[C@@H](OC)/C=C\C=C(/C)C(=O)NC(=CC1=O)C2=O [17-AAG] + Cc1nc(NC(=O)N2CCC[C@H]2C(N)=O)sc1-c1ccnc(C(C)(C)C(F)(F)F)c1 [Alpelisib] (partner 2 µM)
Outline: as §1

Cell Line | relative viability (17-AAG + Palbociclib; first compound 0.00128 µM) | relative viability (17-AAG + Palbociclib; first compound 0.004048 µM) | relative viability (17-AAG + Palbociclib; first compound 0.0128 µM) | relative viability (17-AAG + Palbociclib; first compound 0.04048 µM) | relative viability (17-AAG + Palbociclib; first compound 0.128 µM) | relative viability (17-AAG + Bortezomib; first compound 0.00128 µM) | relative viability (17-AAG + Bortezomib; first compound 0.004048 µM) | relative viability (17-AAG + Bortezomib; first compound 0.0128 µM) | relative viability (17-AAG + Bortezomib; first compound 0.04048 µM) | relative viability (17-AAG + Bortezomib; first compound 0.128 µM) | relative viability (17-AAG + Dasatinib; first compound 0.00128 µM) | relative viability (17-AAG + Dasatinib; first compound 0.004048 µM) | relative viability (17-AAG + Dasatinib; first compound 0.0128 µM) | relative viability (17-AAG + Dasatinib; first compound 0.04048 µM) | relative viability (17-AAG + Dasatinib; first compound 0.128 µM) | relative viability (17-AAG + Alpelisib; first compound 0.00128 µM) | relative viability (17-AAG + Alpelisib; first compound 0.004048 µM) | relative viability (17-AAG + Alpelisib; first compound 0.0128 µM) | relative viability (17-AAG + Alpelisib; first compound 0.04048 µM) | relative viability (17-AAG + Alpelisib; first compound 0.128 µM)
NCI-H460 | 0.31 | 0.117 | 0.016 | 0.0279 | 0.0159 | 1.03 | 0.677 | 0.0227 | 0.0175 | 0.0128 | 0.518 | 0.462 | 0.0434 | 0.0267 | 0.019 | 0.544 | 0.214 | 0.0127 | 0.0124 | 0.0122
NCI-H1793 | 0.345 | 0.295 | 0.208 | 0.14 | 0.17 |  |  |  |  |  | 0.437 | 0.243 | 0.14 | 0.122 | 0.129 | 0.846 | 0.612 | 0.356 | 0.198 | 0.167
NCI-H23 | 0.503 | 0.456 | 0.292 | 0.192 | 0.14 | 0.92 | 0.635 | 0.232 | 0.168 | 0.127 | 0.697 | 0.746 | 0.389 | 0.165 | 0.119 | 0.717 | 0.472 | 0.434 | 0.2 | 0.148
HARA | 0.248 | 0.27 | 0.261 | 0.263 | 0.215 | 1.08 | 1.11 | 1.14 | 1.14 | 0.187 | 0.234 | 0.278 | 0.261 | 0.284 | 0.141 | 0.887 | 0.967 | 0.736 | 0.828 | 0.378
NCI-H1792 | 0.592 | 0.635 | 0.542 | 0.459 | 0.278 | 0.912 | 0.807 | 0.839 | 0.802 | 0.137 | 0.761 | 0.75 | 0.611 | 0.493 | 0.31 | 0.713 | 0.64 | 0.594 | 0.441 | 0.306
NCI-H1703 |  |  |  |  |  | 0.316 | 0.154 | 0.145 | 0.153 | 0.138 |  |  |  |  |  | 0.366 | 0.152 | 0.141 | 0.155 | 0.134
NCI-H2342 | 0.458 | 0.542 | 0.504 | 0.495 | 0.525 |  |  |  |  |  | 0.294 | 0.394 | 0.306 | 0.293 | 0.3 |  |  |  |  | 
CAL-12T | 0.499 | 0.364 | 0.486 | 0.191 | 0.167 | 1.11 | 0.899 | 0.904 | 0.726 | 0.469 | 0.475 | 0.396 | 0.456 | 0.326 | 0.0959 | 1.43 | 1.09 | 0.993 | 0.706 | 0.658
NCI-H838 | 0.234 | 0.209 | 0.133 | 0.14 | 0.129 | 0.962 | 0.653 | 0.124 | 0.136 | 0.0816 | 0.291 | 0.269 | 0.203 | 0.186 | 0.2 | 0.872 | 0.96 | 0.803 | 0.176 | 0.158
NCI-H2085 | 0.51 | 0.472 | 0.479 | 0.443 | 0.337 | 1.08 | 1.02 | 1.11 | 1.04 | 0.714 | 0.184 | 0.271 | 0.243 | 0.292 | 0.298 | 0.825 | 1 | 0.934 | 0.852 | 0.671
NCI-H1395 | 0.632 | 0.61 | 0.532 | 0.373 | 0.384 |  |  |  |  |  | 0.429 | 0.366 | 0.304 | 0.326 | 0.287 | 1.02 | 0.967 | 0.804 | 0.395 | 0.388
NCI-H1648 |  | 0.348 | 0.32 | 0.431 | 0.387 |  |  |  |  |  |  |  |  |  |  |  |  |  |  | 
NCI-H520 | 0.232 | 0.228 | 0.175 | 0.153 | 0.133 | 0.512 | 0.58 | 0.251 | 0.14 | 0.0925 | 0.241 | 0.236 | 0.21 | 0.169 | 0.121 | 0.993 | 0.838 | 0.839 | 0.155 | 0.132
A549 |  |  |  |  |  |  |  |  |  |  |  |  |  |  |  | 0.777 | 0.189 | 0.0463 | 0.056 | 0.0402
IA-LM |  |  |  |  |  | 0.886 | 0.604 | 0.766 | 0.326 | 0.0846 |  |  |  |  |  | 0.719 | 0.813 | 0.657 | 0.303 | 0.105
EKVX | 0.357 | 0.391 | 0.363 | 0.152 | 0.127 | 1.06 | 0.971 | 0.994 | 0.421 | 0.149 | 0.414 | 0.542 | 0.472 | 0.343 | 0.229 | 0.878 | 0.944 | 0.875 | 0.208 | 0.163
ChaGo-K-1 | 0.956 | 0.922 | 0.768 | 0.938 | 0.703 | 1.01 | 0.971 | 0.981 | 0.304 | 0.297 | 0.507 | 0.636 | 0.464 | 0.335 | 0.186 |  |  |  |  | 
SW 900 | 0.575 | 0.511 | 0.277 | 0.192 | 0.125 |  |  |  |  |  | 0.731 | 0.314 | 0.118 | 0.0729 | 0.0968 |  |  |  |  | 
NCI-H1755 | 0.435 | 0.443 | 0.471 | 0.425 | 0.33 | 0.966 | 0.9 | 0.817 | 0.391 | 0.189 | 0.478 | 0.401 | 0.324 | 0.213 | 0.118 | 0.957 | 0.945 | 0.891 | 0.652 | 0.254
